According to patent publication US12054447B2, “PCNA inhibitors” (City of Hope, priority 2015, dated 2024):

Key:
[1] = test system: NCI-H322M; experiment: AOH1160 IC50 in additional cancer cell lines (Table 4); assay type: cell-based; settings: Homo sapiens, Non-Small Cell Lung
Source text: (§1) In addition numerous analogs related to AOH1160 were screened in numerous neuroblastoma cell lines for anti-cancer activity (Table 2). AOH1160 was screened for anti-cancer activity in additional cancer cell lines besides neuroblastoma (Table 3).

[2] = test system: NCI-H23; experiment: as above; assay type: cell-based; settings: Homo sapiens; NCI-H23, Non-Small Cell Lung
Source text: as §1

[3] = test system: HL-60; experiment: as above; assay type: cell-based; settings: Homo sapiens; HL-60, Leukemia
Source text: as §1

[4] = test system: DU-145; experiment: as above; assay type: cell-based; settings: Homo sapiens; DU-145, Prostate
Source text: as §1

[5] = test system: A549; experiment: as above; assay type: cell-based; settings: Homo sapiens; A549, Non-Small Cell Lung
Source text: as §1

[6] = test system: replication fork extension; experiment: DNA fiber assay; assay type: cell-based; settings: CldU / IdU labeling before and after treatment
Protocol: FIGS. 3A-3B. […] Synchronized cells were sequentially incubated in the presence of CldU and IdU before and after AOH1160 treatment, respectively. Cells sequentially incubated with the same two nucleotide analogues but without AOH1160 were used as control. Images of FIG. 3A depict representative images of the labeled DNA strands from cells treated with or without AOH1160. FIG. 3B depicts the lengths of CldU (light gray) and IdU (dark gray) incorporated DNA segments measured from more than 30 independent DNA strands in cells treated with or without AOH1160 were averaged and graphed with standard deviations.

[7] = test system: SK-N-BE(2)c derived xenograft tumors; settings: 30 mg/kg twice daily (BID) by oral gavages, vs vehicle
[8] = test system: brain tumors; experiment: Brain tumors in mice, luciferase imaging; assay type: in vivo; settings: given once weekly to tumor bearing mice
Protocol: (§2) FIG. 12. Effects of AOH1160 on brain tumors in mice. The compound was given to tumor bearing mice once weekly. The brain cancer cells used in this study contains a luciferase. For measuring tumor growth, luciferin was injected into each mouse. The relative growth of the tumors in live mice was determined by measuring luminescent signals by a CCD camera.
as §2, with “The” for “FIG. 12. Effects of AOH1160 on brain tumors in mice. The”, “compound (AOH1160)” for “compound”, “give into” for “given to”

[9] = test system: SK-N-DZ; experiment: TUNEL assay / sub-G1 population (apoptosis); assay type: cell-based, human; settings: NB cells (SK-N-DZ), 500 nM, 24 h
Protocol: (§3) To measure the effect of the compounds on cell growth, cells were seeded at 3×10^4/ml into a 96-well plate. Once attached, cells were treated with various concentrations of AOH1160 for 72 h. Cell growth was measured by the CellTitor-Glo assay (Promega, Madison, WI) according to the manufacturer's instructions. To measure apoptosis, cells were seeded at 1×10^5/ml onto a chamber slide. Once attached, cells were treated with the 500 nM AOH1160 for 24 h. Cells were fixed and analyzed by a TUNEL assay using the TMR red in situ cell death detection kit (Roche Diagnostics, Indianapolis, IN).

[10] = test system: γH2A.X in 7SM0032 cells; experiment: Western blot; assay type: cell-based, human; settings: 500 nM
Protocol: (§4) Cells were dissolved into the Laemmli sample buffer on the plate. The whole cell extracts were sonicated, and the proteins in the lysate were resolved using a 4-12% SDS polyacrylamide gel, and the resolved proteins were blotted onto a nitrocellulose membrane. Antibodies specific to H2A.X, cleaved caspase-3, full-length caspase-3, or cleaved caspase-9 were purchased from Cell Signaling Technology (Danvers, MA). The anti-γH2A.X antibody was purchased from Millipore. The membrane was blocked with 5% nonfat dry milk and incubated individually with each of these antibodies dissolved in the blocking buffer. After incubation with peroxidase-conjugated secondary antibodies, the protein of interest was detected using an ECL kit purchased from Thermo Fisher Scientific (Waltham, MA).

[11] = test system: γH2A.X, caspase-3 and caspase-9 in SK-N-DZ cells; experiment: Western blot; assay type: cell-based, human; settings: NB cells (SK-N-DZ), 500 nM
Protocol: as §4

[12] = test system: 7SM0032; experiment: TUNEL assay (apoptosis); assay type: cell-based, human; settings: 7SM0032 cells, 500 nM, 24 h
Protocol: as §3

[13] = test system: NCI-60 panel; experiment: NCI-60 panel test, median over the panel; assay type: cell-based; settings: 60 cancer cell lines, 5-dose study
Protocol: FIG. 7. NCI-60 panel test. The effect of AOH1160 on growth of the NCI-60 panel, which consists of 60 cancer cell lines representing 9 major cancer types, was tested in a 5-dose study. Shown are the Log IC50 values determined for each cell line. […] This study was performed by the National Institute of Cancer.
As observed in FIG. 7, the effect of AOH1160 on growth of the NCI-60 panel, which consists of 60 cancer cell lines representing 9 major cancer types, was tested in a 5-dose study. Shown are the Log IC50 values determined for each cell line.

[14] = Stability in plasma; assay type: in vitro ADME
Source text: FIGS. 8A-8B. FIG. 8A depicts an illustration of AOH1160 degradation by amide cleavage in mouse plasma. FIG. 8B depicts the stability of AOH1160 in human and animal plasma. […] AOH1160 is stable in the plasma of canine, monkey, and human, as well as in the plasma of ES-1-deficient mice (Es1e/SCID).
AOH1160 was degraded in the plasma collected from a wildtype Balb/c mouse, see FIGS. 8A-8B. […] AOH1160 is stable in the plasma of canine, monkey, and human, as well as in the plasma of ES-1-deficient mice (Es1e/SCID).

[15] = target: human TRβ (Homo sapiens, UniProt P10828); experiment: Human thyroid hormone receptor beta (TRβ) reporter assay; assay type: cell-based; settings: TRβ reporter cells, 24 h
human TRβ, sequence (P10828 whole entry): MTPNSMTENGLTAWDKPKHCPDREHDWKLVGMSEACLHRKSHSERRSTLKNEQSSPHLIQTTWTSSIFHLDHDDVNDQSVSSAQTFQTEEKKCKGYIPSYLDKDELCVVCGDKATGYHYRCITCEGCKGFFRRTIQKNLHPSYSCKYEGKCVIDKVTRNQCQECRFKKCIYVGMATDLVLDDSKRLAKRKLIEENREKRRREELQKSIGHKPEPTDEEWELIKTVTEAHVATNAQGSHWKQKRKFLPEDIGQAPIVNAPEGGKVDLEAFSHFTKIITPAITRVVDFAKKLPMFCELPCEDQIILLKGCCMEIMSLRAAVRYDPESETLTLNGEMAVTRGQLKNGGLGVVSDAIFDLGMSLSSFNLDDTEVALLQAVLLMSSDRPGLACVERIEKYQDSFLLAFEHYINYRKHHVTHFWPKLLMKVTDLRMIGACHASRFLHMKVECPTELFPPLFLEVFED
Source text: Reporter cells constitutively expressing human TRβ and containing a luciferase reporter gene functionally linked to a TRβ-responsive promoter were purchased from Indigo Biosciences (State College, PA). […] The effect of each compound on TRβ activity was examined by measuring the luciferase reporter gene expression according to the manufacturer's instruction.

O=C(CNC(=O)c1cccc2ccccc12)Nc1ccccc1Oc1ccccc1 [AOH1160]
IC50 [1]: 157 nM | IC50 [2]: 194 nM | IC50 [3]: 128 nM | IC50 [4]: 200 nM | IC50 [5]: 173 nM | replication fork extension [6]: inhibition of replication fork extension | tumor burden [7]: significantly reduced tumor burden | brain tumor growth (luminescent signals) [8]: inhibited brain tumor growth | apoptosis [9]: apoptosis as indicated by the increase in the sub-G1 population (FIG. 2A) and TUNEL positivity | intracellular γH2A.X level [10]: Nor does it increase intracellular γH2A.X level | caspase activation [11]: activation of caspase-3 and caspase-9 | γH2A.X levels [11]: increases γH2A.X levels | apoptosis [12]: Nor does it increase intracellular γH2A.X level (FIG. 2B) or cause apoptosis | IC50 [13]: ~320 nM | stability in plasma ([14]; canine plasma): stable | stability in plasma ([14]; human plasma): stable | stability in plasma ([14]; monkey plasma): stable | stability in plasma ([14]; plasma of ES-1-deficient mice (Es1e/SCID)): stable | stability in plasma ([14]; wildtype Balb/c mouse plasma): quickly degraded | thyroid hormone activity in a TR reporter assay [15]: did not show any thyroid hormone activity
